Laboratory results published in patent US8519149B2, “Tricyclic compounds as mPGES-1 inhibitors” (Glenmark Pharmaceuticals S.A., priority 2010, dated 2013).

Target: T1, Recombinant human mPGES-1 (Homo sapiens, UniProt O14684)
T1 sequence (O14684 1-152): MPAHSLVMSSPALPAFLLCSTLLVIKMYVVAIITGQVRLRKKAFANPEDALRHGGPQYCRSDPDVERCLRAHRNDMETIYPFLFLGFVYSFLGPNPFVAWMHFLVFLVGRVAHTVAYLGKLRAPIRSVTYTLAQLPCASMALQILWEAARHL
Experiment: In-vitro mPGES-1 enzyme inhibition assay (PGE2 formation from PGH2, HTRF detection)
Format: biochemical
Details: for inhibition at 1 µM: read-out: Percentage inhibition at 1 μM; for inhibition at 10 µM: 10 μM test compound, read-out: Percentage inhibition at 10 μM; for IC50: class symbols, selected examples
Procedure, shortened: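 Crude microsomal fractions containing recombinant human mPGES-1 (40-60 μg/mL protein) convert PGH2 to PGE2 in the presence of reduced glutathione, with 0.5% final DMSO. Reaction stopped with stannous chloride, and PGE2 measured by anti-PGE2 antibody (HTRF) detection. IC50 by nonlinear regression of % inhibition versus uninhibited enzyme control.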

[1] = 1 μM test compound, recombinant human mPGES-1 microsomal fraction
[2] = recombinant human mPGES-1 microsomal fraction

| inhibition at 1 µM [1] [%] | inhibition at 10 µM [2] [%] | IC50 [nM] | Percentage inhibition at 1 μM (1 μM test compound, recombinant human mPGES-1 microsomal fraction, 1 µM) [%] | SMILES |
| --- | --- | --- | --- | --- |
| 53.9 | 91.1 |  |  | Cc1nc2c(o1)c(C(=O)NC1CCC(F)(F)CC1)cc1nc(Nc3c(Cl)cccc3Cl)[nH]c12 [Example-189, 7-[(2,6-Dichlorophenyl)amino]-N-(4,4-difluorocyclohexyl)-2-methyl-8H-imidazo[4,5-e][1,3]benzoxazole-4-carboxamide] |
| 81.2 | 89.5 | > 100 |  | Cc1nc2c(o1)c(C(=O)Nc1ccc(C(C)(C)C#N)cc1)cc1nc(Nc3c(Cl)cccc3Cl)[nH]c12 [Example-190, N-[4-(2-Cyanopropan-2-yl)phenyl]-7-[(2,6-dichlorophenyl)amino]-2-methyl-8H-imidazo[4,5-e][1,3]benzoxazole-4-carboxamide] |
| 99.8 | 100 | < 50 |  | Cc1ccc(NC(=O)c2cc3nc(Nc4c(F)cccc4Cl)n(C)c3c3c2OC(C)(C)C3)c(F)c1 [Example-154, 2-((2-Chloro-6-fluorophenyl)amino)-N-(2-fluoro-4-methylphenyl)-1,7,7-trimethyl-7,8-dihydro-1H-benzofuro[4,5-d]imidazole-5-carboxamide] |
| 97.5 | 98.6 | < 50 |  | Cc1cccc(Cl)c1Nc1nc2cc(C(=O)Nc3cc(C(F)F)ccc3F)c3c(c2[nH]1)CC(C)(C)O3 [Example-135, 2-((2-Chloro-6-methylphenyl)amino)-N-(5-(difluoromethyl)-2-fluorophenyl)-7,7-dimethyl-7,8-dihydro-1H-benzofuro[4,5-d]imidazole-5-carboxamide] |
| 99.6 | 99.5 | < 50 |  | CC1(C)Cc2c(c(C(=O)Nc3ccc(F)cc3F)cc3nc(Nc4c(Cl)cncc4Cl)[nH]c23)O1 [Example-197, 2-((3,5-Dichloropyridin-4-yl)amino)-N-(2,4-difluorophenyl)-7,7-dimethyl-7,8-dihydro-1H-benzofuro[4,5-d]imidazole-5-carboxamide] |
| 99.4 | 98.1 | < 50 |  | CC1(C)Cc2c(c(C(=O)Nc3cccc(C4CC4)c3)cc3nc(Nc4c(F)cccc4Cl)[nH]c23)O1 [Example-165, 2-((2-Chloro-6-fluorophenyl)amino)-N-(3-cyclopropylphenyl)-7,7-dimethyl-7,8-dihydro-1H-benzofuro[4,5-d]imidazole-5-carboxamide] |
| 100 | 98.8 |  |  | CC1(C)Cc2c(c(C(=O)Nc3ccc(F)c(C(F)(F)F)c3)cc3nc(Nc4c(Cl)cncc4Cl)[nH]c23)O1 [Example-196, 2-((3,5-Dichloropyridin-4-yl)amino)-N-(4-fluoro-3-(trifluoromethyl)phenyl)-7,7-dimethyl-7,8-dihydro-1H-benzofuro[4,5-d]imidazole-5-carboxamide] |
| 99.9 | 100 | < 50 |  | CC1(C)Cc2c(c(C(=O)Nc3ncc(Cl)cc3F)cc3nc(Nc4c(Cl)cccc4Cl)[nH]c23)O1 [Example-205, N-(5-Chloro-3-fluoropyridin-2-yl)-2-((2,6-dichlorophenyl)amino)-7,7-dimethyl-7,8-dihydro-1H-benzofuro[4,5-d]imidazole-5-carboxamide] |
| 79.2 | 88 | > 100 |  | CC1(C)Cc2c(c(-c3nc(-c4ccc(F)c(Cl)c4)no3)cc3nc(Nc4c(Cl)cccc4Cl)[nH]c23)O1 [Example-161, 5-(3-(3-Chloro-4-fluorophenyl)-1,2,4-oxadiazol-5-yl)-N-(2,6-dichlorophenyl)-7,7-dimethyl-7,8-dihydro-1H-benzofuro[4,5-d]imidazol-2-amine] |

Further lines, the compound ahead of its results:

| SMILES | inhibition at 1 µM [1] [%] | inhibition at 10 µM [2] [%] | IC50 [nM] | Percentage inhibition at 1 μM (1 μM test compound, recombinant human mPGES-1 microsomal fraction, 1 µM) [%] |
| --- | --- | --- | --- | --- |
| Cc1ccc(NC(=O)c2cc3nc(Nc4c(F)cccc4Cl)[nH]c3c3c2OC(C)(C)C3)c(F)c1 [Example-128, 2-((2-Chloro-6-fluorophenyl)amino)-N-(2-fluoro-4-methylphenyl)-7,7-dimethyl-7,8-dihydro-1H-benzofuro[4,5-d]imidazole-5-carboxamide] | 90.5 | 94 | < 50 |  |
| Cc1cc2c(o1)c(C(=O)Nc1ccc(Br)cc1)cc1nc(Nc3c(Cl)cccc3Cl)[nH]c12 [Example-66, N-(4-Bromophenyl)-2-[(2,6-dichlorophenyl)amino]-7-methyl-1H-furo[3,2-e]benzimidazole-5-carboxamide] | 96.4 | 95.2 | < 50 |  |
| CC1(C)Cc2c(c(C(=O)Nc3ccc(Br)cc3)cc3nc(Nc4c(Cl)cccc4Cl)[nH]c23)O1 [Example-11, N-(4-Bromophenyl)-2-[(2,6-dichlorophenyl)amino]-7,7-dimethyl-7,8-dihydro-1H-furo[3,2-e]benzimidazole-5-carboxamide] | 100 | 100 | < 50 | 97.45 |
| Cc1cc2c(o1)c(C(=O)NC(C)C(C)(C)C)cc1nc(Nc3c(Cl)cncc3Cl)[nH]c12 (centres unmarked) [Example-23, 2-[(3,5-Dichloropyridin-4-yl)amino]-N-(3,3-dimethylbutan-2-yl)-7-methyl-1H-furo[3,2-e]benzimidazole-5-carboxamide] | 94 | 97.1 | < 50 |  |
| CC1(C)Cc2c(c(C(=O)Nc3ccc(Br)cc3)cc3nc(Nc4c(Cl)cncc4Cl)[nH]c23)O1 [Example-8, N-(4-Bromophenyl)-2-[(3,5-dichloropyridin-4-yl)amino]-7,7-dimethyl-7,8-dihydro-1H-furo[3,2-e]benzimidazole-5-carboxamide] | 92.6 | 90.1 | < 50 |  |
| CC1(C)Cc2c(c(C(=O)Nc3ccc(C(F)(F)F)cn3)cc3nc(Nc4c(F)cccc4Cl)[nH]c23)O1 [Example-122, 2-[(2-Chloro-6-fluorophenyl)amino]-7,7-dimethyl-N-[5-(trifluoromethyl)pyridin-2-yl]-7,8-dihydro-1H-furo[3,2-e]benzimidazole-5-carboxamide] | 96 | 98.1 | < 50 |  |
| CC1(C)Cc2c(c(C(=O)NCC3CCCCC3)cc3nc(Nc4c(F)cccc4Cl)[nH]c23)O1 [Example-42, 2-[(2-Chloro-6-fluorophenyl)amino]-N-(cyclohexylmethyl)-7,7-dimethyl-7,8-dihydro-1H-furo[3,2-e]benzimidazole-5-carboxamide] | 83.2 | 89.9 | < 50 |  |
| CC1(C)Cc2c(c(C(=O)NCc3ccc(F)cc3C(F)(F)F)cc3nc(Nc4c(F)cccc4Cl)[nH]c23)O1 [Example-129, 2-((2-Chloro-6-fluorophenyl)amino)-N-(4-fluoro-2-(trifluoromethyl)benzyl)-7,7-dimethyl-7,8-dihydro-1H-benzofuro[4,5-d]imidazole-5-carboxamide] | 88.3 | 97.1 | < 50 |  |
| CC1(C)Cc2c(c(C(=O)Nc3ccccc3F)cc3nc(Nc4c(F)cccc4Cl)[nH]c23)O1 [Example-51, 2-[(2-Chloro-6-fluorophenyl)amino]-N-(2-fluorophenyl)-7,7-dimethyl-7,8-dihydro-1H-furo[3,2-e]benzimidazole-5-carboxamide] | 96.9 | 99.4 | < 50 |  |
| CC1(C)Cc2c(c(C(=O)NCC3CCCCC3)cc3nc(Nc4c(Cl)cncc4Cl)[nH]c23)O1 [Example-27, N-(Cyclohexylmethyl)-2-[(3,5-dichloropyridin-4-yl)amino]-7,7-dimethyl-7,8-dihydro-1H-furo[3,2-e]benzimidazole-5-carboxamide] | 93.7 | 93 |  |  |
| CN(C)CCNC(=O)c1cc2nc(Nc3c(Cl)cccc3Cl)[nH]c2c2c1OC(C)(C)C2 [Example-61, 2-[(2,6-Dichlorophenyl)amino]-N-[2-(dimethylamino)ethyl]-7,7-dimethyl-7,8-dihydro-1H-furo[3,2-e]benzimidazole-5-carboxamide] | 6.5 | 69.8 |  |  |
| CC1(C)Cc2c(c(C(=O)Nc3ccc(C#N)cc3)cc3nc(Nc4c(Cl)cccc4Cl)[nH]c23)O1 [Example-59, N-(4-Cyanophenyl)-2-[(2,6-dichlorophenyl)amino]-7,7-dimethyl-7,8-dihydro-1H-furo[3,2-e]benzimidazole-5-carboxamide] | 96.8 | 98.1 | < 50 |  |
| CC1(C)Cc2c(c(C(=O)Nc3ccc(Cl)cc3)cc3nc(Nc4c(Cl)cncc4Cl)[nH]c23)O1 [Example-15, N-(4-Chlorophenyl)-2-[(3,5-dichloropyridin-4-yl)amino]-7,7-dimethyl-7,8-dihydro-1H-furo[3,2-e]benzimidazole-5-carboxamide] | 97.5 | 95.5 | < 50 |  |
| CC(C)c1ccc(NC(=O)c2cc3nc(Nc4c(Cl)cccc4Cl)[nH]c3c3c2OC(C)(C)C3)cc1 [Example-90, 2-[(2,6-Dichlorophenyl)amino]-7,7-dimethyl-N-[4-(propan-2-yl)phenyl]-7,8-dihydro-1H-furo[3,2-e]benzimidazole-5-carboxamide] | 97.7 | 98.4 | < 50 |  |
| CC1(C)Cc2c(c(C(=O)N3CCOCC3)cc3nc(Nc4c(Cl)cncc4Cl)[nH]c23)O1 [Example-20, {2-[(3,5-Dichloropyridin-4-yl)amino]-7,7-dimethyl-7,8-dihydro-1H-furo[3,2-e]benzimidazol-5-yl}(morpholin-4-yl)methanone] | 10.5 | 44.9 |  |  |
